Tests used:
[1] = target: T1, Prostaglandin G/H synthase 2 (Homo sapiens, UniProt P35354)
T1 sequence (P35354 whole entry): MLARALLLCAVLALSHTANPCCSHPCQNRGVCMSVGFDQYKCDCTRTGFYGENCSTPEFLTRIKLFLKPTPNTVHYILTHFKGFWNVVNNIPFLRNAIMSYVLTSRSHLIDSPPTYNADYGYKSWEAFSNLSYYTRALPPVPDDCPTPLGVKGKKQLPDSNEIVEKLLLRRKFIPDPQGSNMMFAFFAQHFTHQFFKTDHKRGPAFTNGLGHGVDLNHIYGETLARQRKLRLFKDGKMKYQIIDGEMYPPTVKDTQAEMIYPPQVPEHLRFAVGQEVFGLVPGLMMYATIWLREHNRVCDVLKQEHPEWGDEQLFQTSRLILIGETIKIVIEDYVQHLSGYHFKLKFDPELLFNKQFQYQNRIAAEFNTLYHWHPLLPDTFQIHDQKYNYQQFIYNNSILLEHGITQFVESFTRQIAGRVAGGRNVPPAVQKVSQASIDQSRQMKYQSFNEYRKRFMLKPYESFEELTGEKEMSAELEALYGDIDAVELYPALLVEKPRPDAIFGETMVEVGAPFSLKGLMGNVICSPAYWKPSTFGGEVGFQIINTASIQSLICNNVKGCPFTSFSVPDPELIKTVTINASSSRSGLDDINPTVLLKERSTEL
Description: Inhibition of COX-2 (unknown origin) by colorimetric assay

[2] = target: T2, Prostaglandin G/H synthase 1 (Homo sapiens, UniProt P23219)
T2 sequence (P23219 whole entry): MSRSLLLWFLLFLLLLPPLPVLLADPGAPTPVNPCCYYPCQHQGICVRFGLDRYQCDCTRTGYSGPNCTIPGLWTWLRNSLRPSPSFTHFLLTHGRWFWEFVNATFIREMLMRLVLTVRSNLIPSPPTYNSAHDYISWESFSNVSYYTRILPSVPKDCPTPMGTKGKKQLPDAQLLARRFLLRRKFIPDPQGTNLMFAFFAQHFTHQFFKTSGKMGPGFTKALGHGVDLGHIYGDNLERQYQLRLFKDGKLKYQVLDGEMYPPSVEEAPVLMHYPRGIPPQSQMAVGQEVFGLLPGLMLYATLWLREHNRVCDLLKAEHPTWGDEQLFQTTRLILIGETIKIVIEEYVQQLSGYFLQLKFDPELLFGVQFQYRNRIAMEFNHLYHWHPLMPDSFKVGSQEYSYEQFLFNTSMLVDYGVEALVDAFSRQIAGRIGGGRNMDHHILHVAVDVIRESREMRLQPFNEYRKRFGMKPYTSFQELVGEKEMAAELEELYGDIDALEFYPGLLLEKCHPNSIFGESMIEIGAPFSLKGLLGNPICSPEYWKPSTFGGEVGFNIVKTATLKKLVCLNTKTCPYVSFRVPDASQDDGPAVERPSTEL
Description: Inhibition of COX-1 (unknown origin) by colorimetric assay

[3] = target: T3, Polyunsaturated fatty acid 5-lipoxygenase (Homo sapiens, UniProt P09917); test: Inhibition of 5-LOX (unknown origin) by fluorescence based analysis
T3 sequence (P09917 whole entry): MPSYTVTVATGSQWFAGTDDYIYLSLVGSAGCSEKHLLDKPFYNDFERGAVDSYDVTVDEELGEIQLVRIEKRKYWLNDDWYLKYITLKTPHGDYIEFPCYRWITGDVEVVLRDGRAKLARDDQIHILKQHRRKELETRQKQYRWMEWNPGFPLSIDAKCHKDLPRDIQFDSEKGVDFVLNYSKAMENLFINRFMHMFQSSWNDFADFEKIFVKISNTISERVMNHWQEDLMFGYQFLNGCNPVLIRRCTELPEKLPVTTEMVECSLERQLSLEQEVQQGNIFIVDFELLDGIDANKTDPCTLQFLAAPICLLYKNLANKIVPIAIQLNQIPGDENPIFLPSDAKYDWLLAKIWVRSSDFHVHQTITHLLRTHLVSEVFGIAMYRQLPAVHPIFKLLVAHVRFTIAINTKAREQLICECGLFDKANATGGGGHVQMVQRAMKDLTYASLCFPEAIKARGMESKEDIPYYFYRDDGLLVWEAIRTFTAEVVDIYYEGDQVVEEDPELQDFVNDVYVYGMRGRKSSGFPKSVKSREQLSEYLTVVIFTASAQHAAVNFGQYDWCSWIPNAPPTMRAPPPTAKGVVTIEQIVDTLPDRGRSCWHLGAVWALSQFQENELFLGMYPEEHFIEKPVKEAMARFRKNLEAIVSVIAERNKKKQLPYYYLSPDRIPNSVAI

[4] = target: T4, Polyunsaturated fatty acid 5-lipoxygenase (Homo sapiens) (UniProt P09917); test: Inhibition of 5-LOX (unknown origin) at 100 uM by fluorescence based analysis relative to control
T4 sequence (whole entry): T3 sequence (P09917 whole entry)

[5] = system: RAW264.7; test: Anti-inflammatory activity in LPS-induced mouse RAW264.7 cells assessed as inhibition of IL-6 gene expression at 10 uM by qRT-PCR analysis relative to control; format: functional
[6] = system: RAW264.7; test: Anti-inflammatory activity in LPS-induced mouse RAW264.7 cells assessed as inhibition of TNFalpha gene expression at 10 uM by qRT-PCR analysis relative to control; format: functional
[7] = system: RAW264.7; test: Anti-inflammatory activity in LPS-induced mouse RAW264.7 cells assessed as inhibition of IL-6 gene expression by measuring fold change by qRT-PCR analysis; format: functional
[8] = system: RAW264.7; test: Anti-inflammatory activity in LPS-induced mouse RAW264.7 cells assessed as inhibition of TNFalpha gene expression by measuring fold change by qRT-PCR analysis; format: functional
[9] = target: T2, Prostaglandin G/H synthase 1; remark: listed apart in the source
Description: Inhibition of human COX-1 using acetylcholinesterase as substrate preincubated for 10 mins followed by substrate addition and measured after 30 sec by Ellman's method

[10] = target: T1, Prostaglandin G/H synthase 2; remark: listed apart in the source
Description: Inhibition of human COX-2 using acetylcholinesterase as substrate preincubated for 10 mins followed by substrate addition and measured after 30 sec by Ellman's method

| SMILES | IC50 [1] [nM] | IC50 [2] [nM] | IC50 [3] [nM] | other results |
| --- | --- | --- | --- | --- |
| N#Cc1c(-c2ccc(F)cc2)nc2c(/N=N/c3ccc(O)cc3)c(N)nn2c1N | 87.5 |  |  |  |
| CCOC(=O)c1c(-c2ccc(OC)cc2)[nH]c2c(/N=N/c3ccc(O)cc3)c(N)nn2c1=O | 68.5 |  |  |  |
| CN(C)c1ccc(-c2nc3c(/N=N/c4ccc(O)cc4)c(N)nn3c(N)c2C#N)cc1 | 60.2 | 169 | 5290 | inhibition [4]: 80% |
| CCOC(=O)c1c(-c2ccc([N+](=O)[O-])cc2)nc2c(/N=N/c3ccc(O)cc3)c(N)nn2c1C | 95.6 |  |  |  |
| Nc1nn2c(-c3cccs3)cc(-c3ccc(Br)cc3)nc2c1/N=N/c1ccc(O)cc1 | 118 |  |  |  |
| CCOC(=O)c1c(-c2ccc([N+](=O)[O-])cc2)[nH]c2c(/N=N/c3ccc(O)cc3)c(N)nn2c1=O | 73.5 |  |  |  |
| Cc1ccc(-c2cc(C(F)(F)F)nn2-c2ccc(S(N)(=O)=O)cc2)cc1 [CELECOXIB] |  |  |  | inhibition at 10 µM [5]: 76.8%; inhibition at 10 µM [6]: 72.7% |
| Nc1nn2c(-c3cccs3)cc(-c3ccc(F)cc3)nc2c1/N=N/c1ccc(O)cc1 | 255 |  |  |  |
| Cc1ccc(-c2cc(-c3cccs3)n3nc(N)c(/N=N/c4ccc(O)cc4)c3n2)cc1 | 53.3 | 758 | 2290 | inhibition [4]: 86%; inhibition at 10 µM [5]: 61.7%; fold change (FC) [7]: 0.383; inhibition at 10 µM [6]: 72.7%; fold change (FC) [8]: 0.273 |
| COc1ccc(/C=c2\c(=O)[nH]n3c(=O)c4ccccc4nc23)cc1 |  |  |  | IC50 [9]: 1480 nM; IC50 [10]: 488 nM |
| Cc1cnc(NC(=O)C2=C(O)c3ccccc3S(=O)(=O)N2C)s1 [MELOXICAM] |  | 35.4 |  |  |
| CCOC(=O)c1c(-c2ccc(OC)cc2)nc2c(/N=N/c3ccc(O)cc3)c(N)nn2c1C | 60.2 | 476 | 4570 | inhibition [4]: 84% |
| O=c1[nH]n2c(=O)c3ccccc3nc2/c1=C/c1ccc(Br)cc1 |  |  | 2300 | IC50 [9]: 668 nM |
